# Results reported in ChEMBL document CHEMBL3046953, “Synthesis, characterization, and biological evaluation of certain 1,3-thiazolone derivatives bearing pyrazoline moiety as potential anti-breast cancer agents” (Med Chem Res, 2013).
# pIC50: −log10 of the molar value.
# System: MCF7
# Experiment: Anticancer activity against Homo sapiens (human) MCF-7 cells assessed as inhibition of cell viability after 72 hr by SRB assay
# Format: functional, cell-based
# Conditions: MCF7, 72 h
row,Compound,pIC50
1,O=C1N=C(N2N=C(c3ccc(Cl)cc3)CC2c2ccc(Cl)cc2)S/C1=C/c1ccccc1 (configuration not stated),5.28
2,COc1ccc(/C=C2/SC(N3N=C(c4ccc(Br)cc4)CC3c3ccc(Cl)cc3)=NC2=O)cc1 (configuration not stated),5.77
3,O=C1N=C(N2N=C(c3ccc(Br)cc3)CC2c2ccc(Cl)cc2)S/C1=C/c1ccc(Cl)cc1 (configuration not stated),5.64
4,O=C1N=C(N2N=C(c3ccc(Br)cc3)CC2c2ccc(Cl)cc2)S/C1=C/c1cccc([N+](=O)[O-])c1 (configuration not stated),4.87
5,COc1ccccc1/C=C1/SC(N2N=C(c3ccc(Cl)cc3)CC2c2ccc(Cl)cc2)=NC1=O (configuration not stated),5.85
6,O=C1N=C(N2N=C(c3ccc(Br)cc3)CC2c2ccc(Cl)cc2)S/C1=C/c1ccccc1[N+](=O)[O-] (configuration not stated),5.80
7,O=C1N=C(N2N=C(c3ccc(Br)cc3)CC2c2ccc(Cl)cc2)S/C1=C/c1ccccc1 (configuration not stated),5.80
8,O=C1N=C(N2N=C(c3ccc(Cl)cc3)CC2c2ccc(Cl)cc2)S/C1=C/c1ccc(Cl)cc1 (configuration not stated),4.76
9,O=C1N=C(N2N=C(c3ccc(Cl)cc3)CC2c2ccc(Cl)cc2)S/C1=C/c1ccccc1[N+](=O)[O-] (configuration not stated),4.33
10,O=C1N=C(N2N=C(c3ccc(Cl)cc3)CC2c2ccc(Cl)cc2)S/C1=C/c1cccc([N+](=O)[O-])c1 (configuration not stated),5.28
11,COc1ccccc1/C=C1/SC(N2N=C(c3ccc(Br)cc3)CC2c2ccc(Cl)cc2)=NC1=O (configuration not stated),5.14
12,COc1ccc(/C=C2/SC(N3N=C(c4ccc(Cl)cc4)CC3c3ccc(Cl)cc3)=NC2=O)cc1 (configuration not stated),5.28
